# How the values were obtained:
# [1] = system: C. albicans WT strain SC5314; assay: C. albicans filamentation assay (serum-induced); type: cell-based; conditions: YPD plus 10% fetal bovine serum, 37°C, 2 hours; sub-MIC concentration (5 µM as printed)
# C. neoformans H99 = assay: Epsilometer test (E-test) with fluconazole strips; type: cell-based; conditions: YPD plates with 4456dh, fluconazole E-test strip, 37°C, 72 h, dose-dependent
# Description: Inhibitors of Tps1 may work synergistically with known antifungal drugs. In C. glabrata, the trehalose biosynthesis mutant, tps2Δ, is more susceptible to fluconazole at 37°C ([40]). Therefore, we hypothesized that there might be synergy between 4456dh and fluconazole.
# 169 different concentrations (0.5mM, 1mM, and 5mM) and one was used as untreated control.
# 170 tps1/ tps1 deletion mutant was used as a negative control for filamentation in these assays. 10 µl
# 171 of cell suspension was directly used for imaging the filamentation status of the cells using the
# 172 Zeiss Axio Scope microscope attached to the Axiocam at 40X magnification. The images were
# 173 processed using Fiji (8) for the final presentation.
# 174 Epsilometer Test (E-test)
# 175 C. neoformans wild type (H99) was incubated in a shaking culture of YPD medium for 18 h at
# 176 30 °C. The culture was diluted to an OD600 0.6, diluted 10-fold in PBS, and 100 µL was spread
# 177 onto 60 X 15 mm YPD agar plates prepared with different concentrations of 4456dh. After the […]
# 190 (Zeiss). The size of the capsule of > 100 cells per 4456dh treatment was quantified using Image […]
# 247 was measured using a colorimetric glucose assay after treatment of cultures with trehalase. […]
# 249 Supplemental Figure 11. Quantification of capsule formation in C. neoformans treated with
# 250 4456dh. Images taken were analyzed with ImageJ. […]
# 251 were analyzed. […]
smiles,measurement,setting,value
Cn1cc(-c2csc(NC(=O)Cc3ccccn3)n2)cn1 [Compound 4456dh],filamentation,[1],complete inhibition of filamentation
same,synergy with fluconazole,C. neoformans H99,detected synergy

# — publication PMC12505902, “Inhibitors of trehalose-6-phosphate synthase activity in fungal pathogens compromise thermal tolerance pathways” (mBio, 2025)
